The source made the active and inactive calls.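 Rule for the calls: active = fitted EC50 below about 63 µM, meaning a log molar EC50 under -4.2; inactive = the rest.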
What follows are compounds tested against Integrin alpha-4 (Homo sapiens) (UniProt P13612) (assay: displacement of fluorescent LDV from VLA-4 – U937 cells, flow cytometry, set 1, orthogonal assay, dose response (AID 588412)). Conditions: LDV-FITC competition, flow cytometry MCF.
Integrin alpha-4 (Homo sapiens), sequence (P13612 whole entry, looked up): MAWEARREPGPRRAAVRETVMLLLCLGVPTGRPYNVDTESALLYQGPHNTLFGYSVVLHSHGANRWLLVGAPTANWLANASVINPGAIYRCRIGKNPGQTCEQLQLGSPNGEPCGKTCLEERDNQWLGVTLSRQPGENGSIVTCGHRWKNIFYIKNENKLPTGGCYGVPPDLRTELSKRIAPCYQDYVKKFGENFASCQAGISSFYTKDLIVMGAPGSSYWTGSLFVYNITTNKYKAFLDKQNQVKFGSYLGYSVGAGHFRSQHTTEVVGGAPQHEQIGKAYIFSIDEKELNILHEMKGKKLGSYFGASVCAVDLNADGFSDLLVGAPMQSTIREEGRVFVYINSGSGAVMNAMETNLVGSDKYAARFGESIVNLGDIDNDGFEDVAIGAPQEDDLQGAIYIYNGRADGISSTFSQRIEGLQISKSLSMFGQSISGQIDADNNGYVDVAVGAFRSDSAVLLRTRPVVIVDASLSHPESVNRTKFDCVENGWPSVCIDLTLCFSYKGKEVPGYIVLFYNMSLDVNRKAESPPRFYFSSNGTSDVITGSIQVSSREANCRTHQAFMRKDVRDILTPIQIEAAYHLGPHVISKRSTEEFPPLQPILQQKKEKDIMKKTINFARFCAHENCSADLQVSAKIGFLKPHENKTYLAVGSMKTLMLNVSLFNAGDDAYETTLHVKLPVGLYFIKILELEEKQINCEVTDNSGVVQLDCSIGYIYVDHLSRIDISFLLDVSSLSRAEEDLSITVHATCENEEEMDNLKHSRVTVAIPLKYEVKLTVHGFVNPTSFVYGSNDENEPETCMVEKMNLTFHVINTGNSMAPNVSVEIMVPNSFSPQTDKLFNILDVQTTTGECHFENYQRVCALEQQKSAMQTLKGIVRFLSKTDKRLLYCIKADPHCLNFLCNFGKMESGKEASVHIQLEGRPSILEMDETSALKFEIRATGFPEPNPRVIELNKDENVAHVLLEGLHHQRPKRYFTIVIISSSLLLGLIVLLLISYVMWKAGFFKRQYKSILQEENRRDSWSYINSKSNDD

Row | Structure (SMILES) | EC50
1 | c1ccc2c(-c3ccc(OCCN4CCCC4)cc3)c(-c3ccsc3)sc2c1 | 21 µM
2 | COc1cccc(-c2sc3ccccc3c2-c2ccc(OCCN(C)C)cc2)c1 | 24.5 µM
3 | c1ccc(-c2sc3ccccc3c2-c2ccc(OCCN3CCCC3)cc2)cc1 | 28.2 µM
4 | COc1cccc(-c2sc3ccccc3c2-c2ccc(OCCN3CCCC3)cc2)c1 | 24.6 µM
5 | COc1ccc(-c2sc3ccccc3c2-c2ccc(OCCN(C)C)cc2)cc1 | 16.3 µM
6 | CN(C)CCOc1ccc(-c2c(-c3ccccc3)sc3ccccc23)cc1 | 30.2 µM
7 | c1ccc2c(-c3ccc(OCCN4CCCCC4)cc3)c(-c3ccsc3)sc2c1 | inactive

Reference: PubChem BioAssay AID588412 (NMMLSC, 2011)
